From the Kinase Knowledgebase extract (Sharma et al. 2016)

The compounds below were run against MAPK14 (human) (UniProt Q16539) (assay: Inhibition of MAPK14 Kinase Activity).
Sequence of MAPK14 (human) (Q16539 whole entry, looked up): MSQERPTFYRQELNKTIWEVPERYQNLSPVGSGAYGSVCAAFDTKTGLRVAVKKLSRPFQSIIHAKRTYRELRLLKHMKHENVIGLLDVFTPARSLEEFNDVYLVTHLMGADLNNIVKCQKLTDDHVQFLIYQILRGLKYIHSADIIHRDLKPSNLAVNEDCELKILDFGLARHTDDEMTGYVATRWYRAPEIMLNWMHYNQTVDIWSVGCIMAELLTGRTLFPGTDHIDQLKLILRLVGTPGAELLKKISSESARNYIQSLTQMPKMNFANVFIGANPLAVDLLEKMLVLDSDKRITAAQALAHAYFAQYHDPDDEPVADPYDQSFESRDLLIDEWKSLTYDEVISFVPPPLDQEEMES

IC50, ≤ 10 µM:
O=C1CCC(Sc2ccc(F)cc2)CN1c1c(Cl)ccnc1Cl (stereo unspecified), Cc1cc(C(=O)NCCC(=O)O)cc(C)c1N1CC(Cc2ccc(F)cc2F)CCC1=O (stereo unspecified), COc1ccc(OC2CCC(=O)N(c3c(Cl)cccc3Cl)C2)cc1 (stereo unspecified), CC(=O)Nc1ncc(Cl)c(N2CC(Sc3ccc(F)cc3F)CCC2=O)c1Cl (stereo unspecified), CNc1cc(Cl)c(N2CC(Cc3ccc(F)cc3F)CN(C)C2=O)c(Cl)c1 (stereo unspecified), CC(C)(C)OC(=O)N[C@@H](CO)C(=O)Nc1cc(Cl)c(N2CC(Cc3ccc(F)cc3F)CCC2=O)c(Cl)c1 (stereo partly specified), O=C1[C@H](O)C[C@@H](Cc2ccc(F)cc2F)CN1c1c(Cl)cccc1Cl, CN1CC(Cc2cc(Cl)cc(Cl)c2)CN(c2c(Cl)cccc2Cl)C1=O (stereo unspecified), O=C1CCC(Cc2cc(Cl)cc(Cl)c2)CN1C1C(Cl)CCCC1Cl (stereo unspecified), O=C1CSC(Cc2ccccc2Cl)CN1c1c(Cl)cccc1Cl (stereo unspecified), Cc1cc(C#CCCN(C)C)cc(C)c1N1CC(Cc2ccc(F)cc2F)CCC1=O (stereo unspecified), O=C1CCC(Cc2ccc(Cl)cc2)CN1C1C(Cl)CCCC1Cl (stereo unspecified), C[C@H]1C[C@@H](Cc2ccc(F)cc2F)CN(c2c(Cl)cccc2Cl)C1=O, CC(=O)Nc1ccc(Cl)c(N2CC(Cc3ccc(F)cc3F)CCC2=O)c1 (stereo unspecified), O=C1CCC(Oc2cc(Cl)cc(Cl)c2)CN1c1c(Cl)cncc1Cl (stereo unspecified), Cc1ccc(CC2CN(c3c(Cl)cccc3Cl)C(=O)CS2)c(C)c1 (stereo unspecified), CC(=O)Nc1ccc(Cl)c(N2CC(Cc3ccc(F)cc3F)CN(C)C2=O)c1Cl (stereo unspecified), O=C1CCC(Oc2ccc(F)cc2)CN1c1c(Cl)cccc1Cl (stereo unspecified), CN1CCN(Cc2cc(Cl)c(N3CC(Cc4ccc(F)cc4F)CCC3=O)c(Cl)c2)CC1 (stereo unspecified), Cc1cccc(C)c1N1C[C@@H](N(CCO)S(=O)(=O)c2ccc(F)cc2F)CCC1=O, CC(=O)Nc1cc(Cl)c(N2CC(Cc3ccc(F)cc3F)CN(C)C2=O)c(Cl)c1 (stereo unspecified), CC(C)(C)OC(=O)N(CCNC(N)=O)c1cc(Cl)c(N2CC(Cc3ccc(F)cc3F)CCC2=O)c(Cl)c1 (stereo unspecified), O=C1CCC(Cc2ccc(F)cc2F)CN1c1c(Cl)cc(CO)nc1Cl (stereo unspecified), COc1ccc(CC2CCC(=O)N(c3c(Cl)cncc3Cl)C2)cc1 (stereo unspecified), O=C(Cc1ccccc1)Nc1ccc(Cl)c(N2CC(Cc3ccc(F)cc3F)CSC2=O)c1Cl (stereo unspecified), CN1CC(Cc2ccc(F)cc2F)CN(c2c(Cl)cc(O)cc2Cl)C1=O (stereo unspecified), CNc1cnc(Cl)c(N2CC(Cc3ccc(F)cc3F)CCC2=O)c1Cl (stereo unspecified), Cc1cc(C(=O)O)cc(C)c1N1C[C@@H](Cc2ccc(F)cc2F)C[C@@H](C)C1=O, O=C1CCC(Oc2cc(Cl)cc(Cl)c2)CN1c1c(Cl)csc1Cl (stereo unspecified), Cc1cccc(NC(=O)NCc2ccccc2CC2CCC(=O)N(c3c(Cl)cccc3Cl)C2)c1 (stereo unspecified), NC(=O)/C=C/c1cc(Cl)c(N2CC(Cc3ccc(F)cc3F)CCC2=O)c(Cl)c1 (stereo unspecified), O=C1CCC(Oc2ccc3ccccc3c2)CN1C1C(Cl)CCCC1Cl (stereo unspecified), Nc1sc(Cl)c(N2CC(Sc3ccc(F)cc3F)CCC2=O)c1Cl (stereo unspecified), COc1ccc(CC2CCC(=O)N(c3c(Cl)cccc3Cl)C2)cc1 (stereo unspecified), O=C1CCC(Oc2ccc(F)cc2F)CN1c1c(Cl)cc(CO)nc1Cl (stereo unspecified), O=C1CCC(Sc2ccccc2F)CN1C1C(Cl)CCCC1Cl (stereo unspecified), Nc1ccc(Cl)c(N2CC(Sc3ccc(F)cc3F)CCC2=O)c1Cl (stereo unspecified), CNC(=O)c1cc(C)c(N2CC(Cc3ccc(F)cc3F)CCC2=O)c(C)c1 (stereo unspecified), Nc1cc(Cl)c(N2CC(Sc3ccc(F)cc3F)CCC2=O)c(Cl)n1 (stereo unspecified), CC(=O)Nc1ccc(Cl)c(N2CC(Cc3ccc(F)cc3F)CSC2=O)c1Cl (stereo unspecified), COc1ccc(OC2CCC(=O)N(c3c(Cl)ccnc3Cl)C2)cc1 (stereo unspecified), O=C1CCC(Sc2ccc(F)cc2F)CN1c1c(Cl)cccc1Cl (stereo unspecified), COc1ccc(CC2CN(C)C(=O)N(c3c(Cl)cccc3Cl)C2)cc1 (stereo unspecified), O=C1OCC(Cc2cccc3ccccc23)CN1c1c(Cl)cccc1Cl (stereo unspecified), O=C1CSC(Cc2cc(Cl)cc(Cl)c2)CN1c1c(Cl)cccc1Cl (stereo unspecified), COc1ccc(OC2CCC(=O)N(c3c(Cl)csc3Cl)C2)cc1 (stereo unspecified), O=C1CCC(Oc2ccc(F)cc2F)CN1c1c(Cl)cccc1Cl (stereo unspecified), O=C1CCC(Cc2ccc(F)cc2F)CN1c1c(Cl)cc(N2C(=O)CCC2=O)cc1Cl (stereo unspecified), Cc1ccccc1CC1CSC(=O)N(c2c(Cl)cccc2Cl)C1 (stereo unspecified), CC(=O)Nc1ccc(Cl)c(N2CC(Cc3ccc(F)cc3F)OCC2=O)c1Cl (stereo unspecified), O=C1CCC(Oc2ccc(F)cc2F)CN1c1c(Cl)sc(O)c1Cl (stereo unspecified), Cc1ccc(CC2CSC(=O)N(c3c(Cl)cccc3Cl)C2)c(C)c1 (stereo unspecified), Nc1cc(Cl)c(N2CC(Sc3ccc(F)cc3F)CCC2=O)c(Cl)c1 (stereo unspecified), Cc1ccccc1OC1CCC(=O)N(C2C(Cl)CCCC2Cl)C1 (stereo unspecified), Nc1ncc(Cl)c(N2CC(Cc3ccc(F)cc3F)CCC2=O)c1Cl (stereo unspecified), Nc1sc(Cl)c(N2CC(Oc3ccc(F)cc3F)CCC2=O)c1Cl (stereo unspecified), CC(=O)Nc1ccc(Cl)c(N2CC(Cc3ccc(F)cc3F)SCC2=O)c1Cl (stereo unspecified), O=C1OCC(Cc2ccc(Cl)cc2Cl)CN1c1c(Cl)cccc1Cl (stereo unspecified), O=C1CCC(C(O)c2cccs2)CN1c1c(Cl)cc(Br)cc1Cl (stereo unspecified), Nc1cc(Cl)c(N2CC(Oc3ccc(F)cc3F)CCC2=O)c(Cl)c1 (stereo unspecified), CS(=O)(=O)N1CCC(Nc2cc(Cl)c(N3CC(Cc4ccc(F)cc4F)CCC3=O)c(Cl)c2)CC1 (stereo unspecified), O=C1CCC(Oc2ccc(F)cc2F)CN1c1c(Cl)ccc(O)c1Cl (stereo unspecified), CC(C)(C)OC(=O)N(CC(N)=O)c1cc(Cl)c(N2CC(Cc3ccc(F)cc3F)CCC2=O)c(Cl)c1 (stereo unspecified), Cc1ccc(CC2COC(=O)N(c3c(Cl)cccc3Cl)C2)c(C)c1 (stereo unspecified), Nc1ccc(Cl)c(N2CC(Cc3ccc(F)cc3F)COC2=O)c1Cl (stereo unspecified), CC(=O)Nc1cc(Cl)c(N2CC(Cc3ccc(F)cc3F)CNC2=O)c(Cl)c1 (stereo unspecified), O=C1CCC(Sc2ccc(Cl)cc2)CN1c1c(Cl)ccnc1Cl (stereo unspecified), CN(C)CCNC(=O)CNc1cc(Cl)c(N2CC(Cc3ccc(F)cc3F)CCC2=O)c(Cl)c1 (stereo unspecified), O=C1CCC(Oc2cccc3ccccc23)CN1c1c(Cl)cncc1Cl (stereo unspecified), O=C1CCC(Cc2ccc(Cl)cc2)CN1c1c(Cl)cccc1Cl (stereo unspecified), O=C1CCC(Oc2ccc(F)cc2)CN1c1c(Cl)ccnc1Cl (stereo unspecified), O=C1SCC(Cc2cc(F)cc(F)c2)CN1c1c(Cl)cccc1Cl (stereo unspecified), CC(=O)Nc1cc(Cl)c(N2CC(Cc3ccc(F)cc3F)CSC2=O)c(Cl)c1 (stereo unspecified), O=C(Cc1ccccc1)Nc1cc(Cl)c(N2CC(Cc3ccc(F)cc3F)CSC2=O)c(Cl)c1 (stereo unspecified), Cc1cc(C#CCCOC2CCCCO2)cc(C)c1N1CC(Cc2ccc(F)cc2F)CCC1=O (stereo unspecified), O=C1CCC(Sc2ccc(F)cc2F)CN1c1c(Cl)sc(O)c1Cl (stereo unspecified), O=C1CCC(Oc2ccc(F)cc2F)CN1C1C(Cl)CCCC1Cl (stereo unspecified), Cc1cccc(C)c1N1C[C@@H](N(C)S(=O)(=O)c2ccc(F)cc2F)CCC1=O, Cc1cc(CCCN(C)C)cc(C)c1N1C[C@@H](Cc2ccc(F)cc2F)C[C@@H](C)C1=O, Cc1cc(C)cc(SC2CCC(=O)N(c3c(Cl)cccc3Cl)C2)c1 (stereo unspecified), Cc1ccc(OC2CCC(=O)N(c3c(Cl)ccnc3Cl)C2)cc1 (stereo unspecified), O=C1CCC(Oc2ccccc2Cl)CN1c1c(Cl)ccnc1Cl (stereo unspecified), Nc1cc(Cl)c(N2CC(Cc3ccccc3)CCC2=O)c(Cl)c1 (stereo unspecified), Cc1ccc(SC2CCC(=O)N(c3c(Cl)csc3Cl)C2)c(C)c1 (stereo unspecified), O=C1COC(Cc2ccc(Cl)cc2)CN1c1c(Cl)cccc1Cl (stereo unspecified), COc1ccc(SC2CCC(=O)N(c3c(Cl)ccnc3Cl)C2)cc1 (stereo unspecified), O=C1CCC(Oc2cccc3ccccc23)CN1c1c(Cl)csc1Cl (stereo unspecified), Cc1cc(C)cc(SC2CCC(=O)N(C3C(Cl)CCCC3Cl)C2)c1 (stereo unspecified), CNc1cc(Cl)c(N2CC(Cc3ccc(F)cc3F)OCC2=O)c(Cl)c1 (stereo unspecified), CNc1cc(Cl)c(N2CC(Oc3ccc(F)cc3F)CCC2=O)c(Cl)c1 (stereo unspecified), Cc1cccc(C)c1N1C[C@@H](NS(=O)(=O)c2ccc(F)cc2F)CCC1=O, Cc1ccc(OC2CCC(=O)N(c3c(Cl)ccnc3Cl)C2)c(C)c1 (stereo unspecified), O=C1CCC(Sc2ccc(Cl)cc2Cl)CN1c1c(Cl)cncc1Cl (stereo unspecified), COc1ccccc1CC1CCC(=O)N(C2C(Cl)CCCC2Cl)C1 (stereo unspecified), O=C1CCC(Cc2ccc(F)cc2F)CN1c1ccccc1CCO (stereo unspecified), CN1CC(Cc2ccc3ccccc3c2)CN(c2c(Cl)cccc2Cl)C1=O (stereo unspecified)
